Measurements from patent US7381521B2, “Anti-pathogenic composition useful in blood preservation” (Altachem Pharma Ltd., priority 2001, dated 2008).
Where two headings read alike, the source gives them in different places.

Columns and labels:
C. albicans ATCC 1031 = assay: Test 2 (DGHM), action as a function of disinfection time at 22° C., 8 × 10^7 organisms/ml; format: cell-based, Candida albicans
Protocol: Another test was carried out a basis of the following solutions • 100 ml of a 0.1% solution of chlorohexidine digluconate (pH 6); and • 100 ml of a 0.1% solution of Bardac22®.
The activity of these solutions, alone or in combination, was more particularly tested in respect of Staphylococcus aureus ATCC 6538, Escherichia coli ATCC 11229 and Candida albicans ATCC 10231.
The tests were conducted in accordance with the procedure described in Chapter I/2.1 and 2.2 of Tichtlinien für die Prüfung und Bewertung chemischer Desinfektionsverfahren der DGHM/Guidelines for Testing and Evaluating Chemical Disinfection Processes of DGHM as at 1.1, 1981.

[1] = test system: herpes virus Hominis type 1, strain Bey (HSV1); assay: Immediate virocidal action, zone-forming units on vero cells; format: cell-based; details: day 4, three culture dishes
human fibroblastic cells = assay: Cytotoxicity check of the products on human fibroblastic cells; format: cell-based
Protocol: Cytotoxicity checks are conducted on the products for cellular cultures used in the tests, that is to say the human fibroblastic cells.
The cells are cultivated on a Dulbecco medium enriched with 10% fetal calf serum; at the moment of their use, the cells are washed and the same culture medium is used but without calf serum.
For each product tested or each composition, 10 tubes of cellular culture were used and after inoculation of the product, the tubes were kept under observation for 3 days.
Each product was, in succession, used pure and at dilutions of 10^−1, 10^−2, 10^−3 and added to culture tubes containing 1 ml of nutrient medium in a volume of 0.1 ml.

AgHBs = assay: In vitro degradation of the antigen of hepatitis B virus (AgHBs), virocide + human serum of a hepatitis B patient; format: biochemical; details: Bardac 0.2%
Source text: Action on In Vitro Degradation of the Antigen of Hepatitis B Virus (AgHBs) of the Hepatitis B Virus: Virocide+Human Serum Taken from a Patient with Hepatitis B ( 1/1000th)

**Q.** For CCCCCCCCCC[N+](C)(C)CCCCCCCCCC.[Cl-] [Bardac ®, didecyl dimethyl ammonium chloride], which growth (C. albicans ATCC 1031; 0.05% vol/vol, 1 min) is on record?
**A.** +

**Q.** What about the growth (C. albicans ATCC 1031; 0.05% vol/vol, 3 min) of the same compound?
**A.** +

**Q.** And the growth (C. albicans ATCC 1031; 0.05% vol/vol, 5 min)?
**A.** +

**Q.** What about the growth (C. albicans ATCC 1031; 0.05% vol/vol, 15 min) of the same compound?
**A.** +

**Q.** What about the growth (C. albicans ATCC 1031; 0.05% vol/vol, 30 min) of the same compound?
**A.** +

**Q.** What about the growth (C. albicans ATCC 1031; 0.05% vol/vol, 60 min) of the same compound?
**A.** +

**Q.** And the growth (C. albicans ATCC 1031; 0.1% vol/vol, 1 min)?
**A.** +

**Q.** And the growth (C. albicans ATCC 1031; 0.1% vol/vol, 3 min)?
**A.** +

**Q.** What about the growth (C. albicans ATCC 1031; 0.1% vol/vol, 5 min) of the same compound?
**A.** +

**Q.** And the growth (C. albicans ATCC 1031; 0.1% vol/vol, 15 min)?
**A.** +

**Q.** What about the growth (C. albicans ATCC 1031; 0.1% vol/vol, 30 min) of the same compound?
**A.** +

**Q.** What about the growth (C. albicans ATCC 1031; 0.1% vol/vol, 60 min) of the same compound?
**A.** +

**Q.** And the growth (C. albicans ATCC 1031; 0.5% vol/vol, 1 min)?
**A.** +

**Q.** What about the growth (C. albicans ATCC 1031; 0.5% vol/vol, 3 min) of the same compound?
**A.** +

**Q.** And the growth (C. albicans ATCC 1031; 0.5% vol/vol, 5 min)?
**A.** +

**Q.** What about the growth (C. albicans ATCC 1031; 0.5% vol/vol, 15 min) of the same compound?
**A.** +

**Q.** And the growth (C. albicans ATCC 1031; 0.5% vol/vol, 30 min)?
**A.** +

**Q.** What about the growth (C. albicans ATCC 1031; 0.5% vol/vol, 60 min) of the same compound?
**A.** +

**Q.** And the growth (C. albicans ATCC 1031; 1% vol/vol, 1 min)?
**A.** +

**Q.** And the growth (C. albicans ATCC 1031; 1% vol/vol, 3 min)?
**A.** +

**Q.** And the growth (C. albicans ATCC 1031; 1% vol/vol, 5 min)?
**A.** +

**Q.** And the growth (C. albicans ATCC 1031; 1% vol/vol, 15 min)?
**A.** +

**Q.** What about the growth (C. albicans ATCC 1031; 1% vol/vol, 30 min) of the same compound?
**A.** −

**Q.** What about the growth (C. albicans ATCC 1031; 1% vol/vol, 60 min) of the same compound?
**A.** −

**Q.** And the growth (C. albicans ATCC 1031; 5% vol/vol, 1 min)?
**A.** +

**Q.** What about the growth (C. albicans ATCC 1031; 5% vol/vol, 3 min) of the same compound?
**A.** +

**Q.** And the growth (C. albicans ATCC 1031; 5% vol/vol, 5 min)?
**A.** −

**Q.** What about the growth (C. albicans ATCC 1031; 5% vol/vol, 15 min) of the same compound?
**A.** −

**Q.** What about the growth (C. albicans ATCC 1031; 5% vol/vol, 30 min) of the same compound?
**A.** −

**Q.** What about the growth (C. albicans ATCC 1031; 5% vol/vol, 60 min) of the same compound?
**A.** −

**Q.** And the growth (C. albicans ATCC 1031; 10% vol/vol, 1 min)?
**A.** −

**Q.** And the growth (C. albicans ATCC 1031; 10% vol/vol, 3 min)?
**A.** −

**Q.** And the growth (C. albicans ATCC 1031; 10% vol/vol, 5 min)?
**A.** −

**Q.** And the growth (C. albicans ATCC 1031; 10% vol/vol, 15 min)?
**A.** −

**Q.** And the growth (C. albicans ATCC 1031; 10% vol/vol, 30 min)?
**A.** −

**Q.** What about the growth (C. albicans ATCC 1031; 10% vol/vol, 60 min) of the same compound?
**A.** −

**Q.** What about the growth (C. albicans ATCC 1031; 25% vol/vol, 1 min) of the same compound?
**A.** −

**Q.** And the growth (C. albicans ATCC 1031; 25% vol/vol, 3 min)?
**A.** −

**Q.** And the growth (C. albicans ATCC 1031; 25% vol/vol, 5 min)?
**A.** −

**Q.** And the growth (C. albicans ATCC 1031; 25% vol/vol, 15 min)?
**A.** −

**Q.** What about the growth (C. albicans ATCC 1031; 25% vol/vol, 30 min) of the same compound?
**A.** −

**Q.** What about the growth (C. albicans ATCC 1031; 25% vol/vol, 60 min) of the same compound?
**A.** −

**Q.** What about the “Number of zone-forming units per milliliter of virus diluted to 10^−4” value ([1]; Bardac 0.02%) of the same compound?
**A.** 30/125/45

**Q.** What about the “Number of zone-forming units per milliliter of virus diluted to 10^−4” value ([1]; Bardac, concentration not given, second series (control virus at 10^−6)) of the same compound?
**A.** 26/17/20

**Q.** What about the “toxicity for the cell cultures” value (human fibroblastic cells; 0.04% solution at a dilution of 10^−3, 0.1 ml in 1 ml medium, 3 days) of the same compound?
**A.** not toxic

**Q.** And the “Residual AgHBs (ratio)” value (AgHBs)?
**A.** 1.35

**Q.** What does the source list for [H]/N=C(\N/C(=N/[H])NCCCCCCNC(=N)NC(=N)Nc1ccc(Cl)cc1)Nc1ccc(Cl)cc1 [Chlorhexidine, chlorohexidine digluconate, reference compound]?
**A.** growth (C. albicans ATCC 1031; 0.05% vol/vol, 1 min): +; growth (C. albicans ATCC 1031; 0.05% vol/vol, 3 min): +; growth (C. albicans ATCC 1031; 0.05% vol/vol, 5 min): +; growth (C. albicans ATCC 1031; 0.05% vol/vol, 15 min): +; growth (C. albicans ATCC 1031; 0.05% vol/vol, 30 min): +; growth (C. albicans ATCC 1031; 0.05% vol/vol, 60 min): +; growth (C. albicans ATCC 1031; 0.1% vol/vol, 1 min): +; growth (C. albicans ATCC 1031; 0.1% vol/vol, 3 min): +; growth (C. albicans ATCC 1031; 0.1% vol/vol, 5 min): +; growth (C. albicans ATCC 1031; 0.1% vol/vol, 15 min): +; growth (C. albicans ATCC 1031; 0.1% vol/vol, 30 min): +; growth (C. albicans ATCC 1031; 0.1% vol/vol, 60 min): +; growth (C. albicans ATCC 1031; 0.5% vol/vol, 1 min): +; growth (C. albicans ATCC 1031; 0.5% vol/vol, 3 min): +; growth (C. albicans ATCC 1031; 0.5% vol/vol, 5 min): +; growth (C. albicans ATCC 1031; 0.5% vol/vol, 15 min): +; growth (C. albicans ATCC 1031; 0.5% vol/vol, 30 min): +; growth (C. albicans ATCC 1031; 0.5% vol/vol, 60 min): +; growth (C. albicans ATCC 1031; 1% vol/vol, 1 min): +; growth (C. albicans ATCC 1031; 1% vol/vol, 3 min): +; growth (C. albicans ATCC 1031; 1% vol/vol, 5 min): +; growth (C. albicans ATCC 1031; 1% vol/vol, 15 min): +; growth (C. albicans ATCC 1031; 1% vol/vol, 30 min): +; growth (C. albicans ATCC 1031; 1% vol/vol, 60 min): −; growth (C. albicans ATCC 1031; 5% vol/vol, 1 min): +; growth (C. albicans ATCC 1031; 5% vol/vol, 3 min): +; growth (C. albicans ATCC 1031; 5% vol/vol, 5 min): +; growth (C. albicans ATCC 1031; 5% vol/vol, 15 min): +; growth (C. albicans ATCC 1031; 5% vol/vol, 30 min): −; growth (C. albicans ATCC 1031; 5% vol/vol, 60 min): −; growth (C. albicans ATCC 1031; 10% vol/vol, 1 min): +; growth (C. albicans ATCC 1031; 10% vol/vol, 3 min): +; growth (C. albicans ATCC 1031; 10% vol/vol, 5 min): +; growth (C. albicans ATCC 1031; 10% vol/vol, 15 min): +; growth (C. albicans ATCC 1031; 10% vol/vol, 30 min): −; growth (C. albicans ATCC 1031; 10% vol/vol, 60 min): −; growth (C. albicans ATCC 1031; 25% vol/vol, 1 min): +; growth (C. albicans ATCC 1031; 25% vol/vol, 3 min): +; growth (C. albicans ATCC 1031; 25% vol/vol, 5 min): +; growth (C. albicans ATCC 1031; 25% vol/vol, 15 min): −; growth (C. albicans ATCC 1031; 25% vol/vol, 30 min): −; growth (C. albicans ATCC 1031; 25% vol/vol, 60 min): −; toxicity for the cell cultures (human fibroblastic cells): no toxicity
